Laboratory results: article PMC9818267, “Brain Natriuretic Peptide Protects Cardiomyocytes from Apoptosis and Stimulates Their Cell Cycle Re-Entry in Mouse Infarcted Hearts” (Cells, 2022)
No end group written: not given here.

Experiments:
cardiomyocytes (CMs) = assay: qRT-PCR on CMs isolated from treated hearts; assay type: in vivo, mouse
Method: BNP was injected into infarcted adults, and unmanipulated neonatal and adult mice. Directly after surgery, NaCl (saline) or BNP (1.3 µg/20 g in 20 µL) was injected into the left ventricle cavity. At 24 h after MI, mice were intraperitoneal (ip) injected with BNP (2 µg/20 g mice) or saline every 2 days. C57BL/6 mice were sacrificed 1- and 14 days post-MI and Myh6 MerCreMer mice were sacrificed 14 days post-MI (Figure 1A). Neonatal C57BL/6 mice (3 days after birth) were injected ip with NaCl or BNP every two days (1 µg/2 g; Bachem; synthetic mouse BNP (1–45) peptide (catalog number H-7558)). Mice were sacrificed 11 days after birth (Figure 1B). Eight week old C57 BL/6 mice or Myh6 MerCreMer unmanipulated mice were injected ip with BNP (2 µg/20 g mice) or NaCl every two days (Figure 1C). Two weeks after the first injection, mice were sacrificed. To assess for the implication of the ERK signaling pathway in the BNP effect on CMs, PD0325901 (60 µg/20 g mice in 80 µL) was administered by gavage in adult unmanipulated mice 1 h before BNP injection (2 µg/20 g mice).
(§1) CM isolations were performed thanks to the Langendorff-Free method. […] Thereafter, the heart was removed from the chest and the left ventricle was perfused with enzymatic solution containing collagenase II (120 U/mL), collagenase IV (120 U/mL) (Worthington, Biochemical Corporation, USA) and protease XIV (0.05 mg/mL or 0.175 U/mL) (Sigma-Aldrich, Merck, Darmstadt, Germany). In each experiment, a full digestion of the heart was obtained. After digestion, cardiac cells were dissociated by gentle pipetting, filtered and collected after 25 min sedimentation. For infarcted hearts, the tissue was separated into the three zones (ZI, BZ and RZ). The three different areas were weighted before gentle pipetting.
qRT-PCR were performed using the SYBR Premix Ex Taq polymerase (Takara Bio Inc., Shiga, Japan) with the ViiA^TM7 Instrument (Applied Biosystems, Waltham, MA, USA). Total RNA was isolated from heart tissue, CM cell cultures and isolated CMs using TRI-Reagent (Zymo Research, Orange County, CA, USA). cDNA was synthesized from RNA using PrimeScript RT reagent kit (Takara Bio Inc.). Polymerase chain reactions (PCR) were performed using the SYBR Premix Ex Taq polymerase (Takara Bio Inc.) with the ViiA^TM7 Instrument (Applied Biosystems). Results were obtained after 40 cycles of a thermal step protocol consisting of an initial denaturation of 95 °C (1 s), followed by 60 °C (20 s) of elongation (α-skeletal actin has an elongation time of 30 s at 60 °C). The sequences of primers were reported in Supplementary File S2. All results were normalized with the 18S housekeeping gene (Δ CT values). Means of ΔΔ CT (Δ CTBNP–Δ CTsaline) values (versus untreated cells or NaCl treated mice) were calculated and results were represented as 2^−ΔΔCT. Statistics were performed on ΔΔ CT individual values. SEM fold increase was calculated using 2^−ΔΔ CT high values − 2^−means of ΔΔCT [13].

neonatal CMs = assay: Neonatal cardiomyocyte culture treated with BNP; assay type: cell-based, mouse
Method: Neonatal (1–2 days) C57BL/6 pups were sacrificed and CMs were isolated by enzymatic digestion according to the method previously described. Briefly, the chest was opened and the heart removed. After separation of the atria from the rest of the heart, the ventricles were minced and digested with 0.45 mg/mL collagenase (Worthington, Biochemical Corporation, Lakewood, NJ, USA) and 1 mg/mL pancreatin (Sigma). After 3 rounds of digestion, cells were plated 2 times for 45 min in order to separate CMs (non-adherent cells) from the non-myocyte cells (NMCs). Thereafter, CMs were plated on gelatine (0.1%) coated plates and cultured in 3:1 mixture of DMEM and Medium 199 (Invitrogen Corp, San Diego, CA, USA) supplemented with 10% horse serum (Oxoid), 5% fetal bovine serum (Invitrogen), 10 mM Hepes, 100 U/mL penicillin G. To homogenize the experiment, 70,000 CMs were plated per well.
Immediately after plating, neonatal CMs were treated or not with BNP for 14 days. To inhibit NMC proliferation and to work on 95% pure CMs, cells were exposed the first 7 days of culture to cytosine-β-D-arabinofuranoside (AraC, 1 mg/mL). After 7 days of culture, AraC was removed until 14 days of culture. CMs were cultured in a hypoxia chamber (Stem Cell Technologies) flushed with 3% O2/5% CO2/92% N2 (Carbagas). Indeed, we previously observed that low oxygen concentration stimulates CM dedifferentiation and proliferation. Medium was replaced 1–2 times/week.
CMs were treated with 3 different concentrations of BNP: 10 nM, 100 nM and 1000 nM and compared to untreated cells. Quantitative RT-qPCR, Western blot analysis as well as immunohistochemistry studies were performed after 14 days of culture.

Akt = assay: Western blot pAkt/Akt in adult CMs stimulated in vitro; assay type: cell-based, mouse; conditions: adult CMs stimulated with BNP for 2–3 h in vitro, vs untreated
Method: as §1
Total proteins were extracted from CMs isolated from adult infarcted and unmanipulated neonatal and adult hearts. Proteins were transferred to nitrocellulose membranes (Biorad) before incubation with primary antibodies overnight at 4 °C. Secondary antibodies were added 1 h at RT in the dark (Supplementary File S1). The signal was detected and quantified with the Odyssey infrared imaging system (LI-COR. Biosciences, Bad Homburg, Germany). All results were normalized to the tubulin protein level or to the total protein level thanks to stainings with the Revert 700 Total protein Stain (LI-COR).

[1] = Infarct size by echocardiography; assay type: in vivo, mouse; conditions: two weeks after surgery
Excerpt: To assess for the reproducibility of LAD occlusion, we measured the infarct size by echocardiography analysis (% of the MI length long axis). Two weeks after surgery, the infarct area represented 37 ± 2.5% of the LV in saline injected mice (n = 10) and 31.5 ± 4% in BNP-treated mice (n = 7).

[2] = cited from earlier work
[3] = CMs from border area of infarcted hearts, BNP vs saline
[4] = CMs from unmanipulated adult hearts, BNP vs saline
[5] = neonatal CMs in vitro, BNP vs untreated
[6] = neonatal CMs in vitro, BNP vs untreated, 14 days

## Brain Natriuretic Peptide (SQGSTLRVQQRPQNSKVTHISSCFGHKIDRIGSVSRLGCNALKLL; not fully specified; ends and bridges not checked; UniProt P40753 77-121, looked up) [BNP, synthetic mouse BNP (1–45) peptide (Bachem, catalog number H-7558)]
Cardiomyocytes (CMs); CMs from BZ of BNP-treated infarcted hearts, vs saline
  hearts with increased cyclin A2 and B2 mRNA in isolated CMs: 4 out of 8
Cardiomyocytes (CMs); CMs from RZ of BNP-treated infarcted hearts (data not shown)
  mRNA expression of myh7, acta1, hif1α: No difference
Cardiomyocytes (CMs); [3]
  acta1 mRNA level increase: 2 ×
  hif1α mRNA level increase: 1.4 ×
Cardiomyocytes (CMs); CMs from neonatal BNP-treated hearts, vs saline
  hif1α mRNA level increase: 1.5 ×
Cardiomyocytes (CMs); [4]
  acta1 mRNA level increase: 1.4 ×
  hif1α mRNA level increase: 1.8 ×
  myh7 mRNA level increase: 1.9 ×
Cardiomyocytes (CMs); CMs isolated from all neonatal BNP-treated hearts, vs saline
  mRNAs coding for cyclins E1, A2 or B2: increased levels
Cardiomyocytes (CMs); unmanipulated adult BNP-treated hearts, vs saline
  CM isolations with increased cyclin A2 or B2 mRNA: 5 out of 7
Neonatal CMs; 10 nM BNP, 14 days, 3% O2, vs untreated
  increase of number of CMs in culture: 18%
Neonatal CMs; BNP-treated neonatal CM cultures vs untreated
  number of small and mononucleated CMs: higher number
Neonatal CMs; [5]
  cyclin A2 mRNA increase: 40%
  cyclin B2 mRNA increase: 30%
  cyclin D1 mRNA increase: 50%
Neonatal CMs; [6]
  increase of percentage of CMs expressing Aurkb: 50%
  increase of percentage of CMs expressing Ki67: 23%
Akt
  pAkt/Akt ratio increase: 2.5 ×
[1]; BNP vs saline
  reduction of infarct size: 15%
[1]; BNP-treated n = 7, saline 37 ± 2.5% (n = 10)
  infarct area as % of the LV (% of the MI length long axis): 31.5 ± 4%
[2]; healthy persons
  half-life in the circulation: about 18 min
[2]; patients with congestive heart failure
  half-life in the plasma: ~12 min
